How the values were obtained:
[1] = urinary excretion of thiamine metabolites TMA and PMA and TMA/PMA ratio (LC-MS/MS of urine)
[2] = in vivo; cited from earlier work

## Cc1ncc(CO)c(N)n1 [PMA]
[1]; human
  Urinary excretion rate at lowest point during fasting: 0.07 nmol/h

## Cc1ncsc1CCO [TMA]
[1]; human
  Urinary excretion rate at lowest point during fasting: 0.06 nmol/h

## Cc1ncc(C[n+]2csc(CCO)c2C)c(N)n1 [thiamine]
[2]
  Oral bioavailability: poor
[1]; consumption of thiamine after a period of induced deficiency
  TMA/PMA ratio relative to its typical fasting value (transient reduction): less than 20%
[1]; human, following consumption of thiamine (100 mg) after fast and sucrose
  Ratio of TMA to PMA (TMA/PMA) in urine: 0.12

From patent US20130102624A1 (priority 2011, published 2013)
